Assay [1] can be described thus: Kcat in bacterium VhM42.
The nature of assay [2]: Km in bacterium VhM42.

Usually Km stands for the substrate concentration at which the rate is half of its maximum. In the case of `CCCCCCCCC(O)CC(C)=O` (configuration not stated), the k cat in assay [1] is 1.67e-05 s⁻¹. Besides, in assay [2], the Michaelis constant (Km) turned out to be 190 µM.

The values are drawn from ChEMBL document CHEMBL1133069, “Highly sensitive and rapid detection of antibody catalysis by luminescent bacteria” (Bioorg Med Chem Lett, 2000).
